According to ChEMBL document CHEMBL1201862, “PubChem BioAssay data set” (2004):
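Values below derive from 48-hour exposures of cells grown in 96-well plates, with endpoints linearly interpolated between the two concentrations bracketing the appropriate inhibition level. At the GI50, growth is halved.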 Active and inactive are the calls of the source. No stated cut-off is given here; in the data, active = GI50 up to about 1.1 µM and inactive = higher.

Experiments:
Experiment in all cases: NCI-60 cell line screen, 48 h
Malme-3M = system: Malme-3M
NCI/ADR-RES = system: NCI/ADR-RES
ACHN = system: ACHN
UO-31 = system: UO-31
MDA-MB-231 = system: MDA-MB-231
A549 = system: A549
SF-268 = system: SF-268
KM12 = system: KM12
A498 = system: A498
SK-OV-3 = system: SK-OV-3
HCT-15 = system: HCT-15
LOX IMVI = system: LOX IMVI
SW-620 = system: SW-620
RPMI-8226 = system: RPMI-8226
NCI-H23 = system: NCI-H23
OVCAR-3 = system: OVCAR-3
NCI-H226 = system: NCI-H226
SN12C = system: SN12C
HCC 2998 = system: HCC 2998
PC-3 = system: PC-3

SMILES	GI50 (Malme-3M)	GI50 (NCI/ADR-RES)	GI50 (ACHN)	GI50 (UO-31)	GI50 (MDA-MB-231)	GI50 (A549)	GI50 (SF-268)	GI50 (KM12)	GI50 (A498)	GI50 (SK-OV-3)	GI50 (HCT-15) [µM]	GI50 (LOX IMVI)	GI50 (SW-620)	GI50 (RPMI-8226)	GI50 (NCI-H23)	GI50 (OVCAR-3)	GI50 (NCI-H226)	GI50 (SN12C)	GI50 (HCC 2998)	GI50 (PC-3)
N#CC(c1cc(Cl)ncn1)c1nc2cc(C(F)(F)F)ccc2s1 (stereo unspecified)	4.14 µM (inactive)	3.08 µM (inactive)	13.6 µM (inactive)	4.97 µM (inactive)	4.31 µM (inactive)	6.01 µM (inactive)	3.66 µM (inactive)	3.27 µM (inactive)	5.85 µM (inactive)	17.5 µM (inactive)	3.48	3.57 µM (inactive)	5.37 µM (inactive)	3.78 µM (inactive)	2.58 µM (inactive)	3.32 µM (inactive)	15.1 µM (inactive)	13.7 µM (inactive)		
OCCC/N=C1N=C(Cl)/C(=C\c2ccccc2)N\1	> 100 µM (inactive)	> 100 µM (inactive)	> 100 µM (inactive)	> 100 µM (inactive)	> 100 µM (inactive)	> 100 µM (inactive)	> 100 µM (inactive)	> 100 µM (inactive)	> 100 µM (inactive)	> 100 µM (inactive)	> 100	> 100 µM (inactive)	> 100 µM (inactive)	> 100 µM (inactive)	> 100 µM (inactive)		> 100 µM (inactive)	> 100 µM (inactive)	> 100 µM (inactive)	
O=C(CC(NC(=O)OCc1ccccc1)C(=O)NC1Cc2ccccc2C1=O)OCc1ccccc1 (stereo unspecified)	> 100 µM (inactive)	> 100 µM (inactive)	> 100 µM (inactive)	> 100 µM (inactive)		> 100 µM (inactive)	> 100 µM (inactive)	> 100 µM (inactive)		> 100 µM (inactive)	> 100		> 100 µM (inactive)	> 100 µM (inactive)	> 100 µM (inactive)	> 100 µM (inactive)	> 100 µM (inactive)	> 100 µM (inactive)	> 100 µM (inactive)	> 100 µM (inactive)
COCc1nc2c(OC)c(-c3nc4ccc(N5CCN(C)CC5)cc4[nH]3)cc(OC)c2[nH]1	16.9 µM (inactive)	> 100 µM (inactive)	65.9 µM (inactive)	31.2 µM (inactive)	30.2 µM (inactive)	48.9 µM (inactive)	> 100 µM (inactive)	28.1 µM (inactive)	> 100 µM (inactive)	52.1 µM (inactive)	56.1	18.7 µM (inactive)	40.6 µM (inactive)	32.1 µM (inactive)	83.4 µM (inactive)	29.7 µM (inactive)	> 100 µM (inactive)	43.9 µM (inactive)		42.9 µM (inactive)
C/C(=N\C1CCCCC1)c1ccccc1O	> 100 µM (inactive)	> 100 µM (inactive)	> 100 µM (inactive)	> 100 µM (inactive)	> 100 µM (inactive)	> 100 µM (inactive)	> 100 µM (inactive)	> 100 µM (inactive)	> 100 µM (inactive)	> 100 µM (inactive)	> 100	> 100 µM (inactive)	> 100 µM (inactive)	87.5 µM (inactive)	> 100 µM (inactive)		> 100 µM (inactive)	> 100 µM (inactive)		> 100 µM (inactive)
O=c1[nH]nc(-c2ccccc2)n1/N=C/c1ccncc1	> 100 µM (inactive)	> 100 µM (inactive)	> 100 µM (inactive)	46.3 µM (inactive)		> 100 µM (inactive)	> 100 µM (inactive)	> 100 µM (inactive)	24.9 µM (inactive)		> 100	> 100 µM (inactive)	> 100 µM (inactive)	> 100 µM (inactive)	> 100 µM (inactive)	> 100 µM (inactive)	97.7 µM (inactive)	> 100 µM (inactive)	> 100 µM (inactive)	> 100 µM (inactive)
COC(=O)c1ccccc1C1=C([N+](=O)[O-])C(c2cccc(Br)c2)C(C#N)=C(N)O1 (stereo unspecified)		23.3 µM (inactive)	23.6 µM (inactive)		73.8 µM (inactive)	> 100 µM (inactive)	25.8 µM (inactive)	> 10 µM (inactive)		> 100 µM (inactive)	19.4	19.4 µM (inactive)	25.8 µM (inactive)	23.7 µM (inactive)	27.1 µM (inactive)	20.7 µM (inactive)	> 100 µM (inactive)	38 µM (inactive)	26.3 µM (inactive)	40.6 µM (inactive)
COC1C(OC(=O)c2ccc(C)[nH]2)C(O)C(Oc2ccc3c(O)c(NC(=O)c4c[nH]c(C(=O)Nc5c(O)c6ccc(OC7OC(C)(C)C(OC)C(OC(=O)c8ccc(C)[nH]8)C7O)c(C)c6oc5=O)c4C)c(=O)oc3c2C)OC1(C)C (stereo unspecified)	2.09 µM (inactive)		2.53 µM (inactive)	1.45 µM (inactive)		3.39 µM (inactive)	0.67 µM (active)	1.32 µM (inactive)	1.76 µM (inactive)	2.15 µM (inactive)	1.88	2.77 µM (inactive)	4.34 µM (inactive)	1.53 µM (inactive)	1.24 µM (inactive)	3.26 µM (inactive)	1.96 µM (inactive)	1.54 µM (inactive)	2.59 µM (inactive)	
CCOC(=O)C(NC(=O)Nc1ccc(Cl)c(Cl)c1)C(F)(F)F (stereo unspecified)		> 100 µM (inactive)	57.4 µM (inactive)	49.8 µM (inactive)		> 100 µM (inactive)	> 100 µM (inactive)		> 100 µM (inactive)	> 100 µM (inactive)	40.9	> 100 µM (inactive)	> 100 µM (inactive)	> 100 µM (inactive)	> 100 µM (inactive)			> 100 µM (inactive)	> 100 µM (inactive)	> 100 µM (inactive)
C/C(=C\c1ccc(Cl)c(Cl)c1)[N+](=O)[O-]	2.08 µM (inactive)	3.41 µM (inactive)	1.98 µM (inactive)	1.32 µM (inactive)	2.1 µM (inactive)	1.89 µM (inactive)	1.4 µM (inactive)	2.02 µM (inactive)	4.4 µM (inactive)		1.35	0.314 µM (active)	0.986 µM (active)		2.26 µM (inactive)	1.65 µM (inactive)	2.46 µM (inactive)	2.05 µM (inactive)	4.36 µM (inactive)	
CC(C)[C@@H]1CC[C@@H](C)C[C@H]1OC(=O)c1c2n(c3ccccc13)C[C@H]1OC(C)(C)O[C@@H]21	7.64 µM (inactive)	13.2 µM (inactive)	8.22 µM (inactive)	96.2 µM (inactive)	23 µM (inactive)	18.9 µM (inactive)	19.2 µM (inactive)	9.08 µM (inactive)		21.3 µM (inactive)	24.7	6.18 µM (inactive)	16.6 µM (inactive)	3.61 µM (inactive)	5.77 µM (inactive)	18.2 µM (inactive)	22.3 µM (inactive)	24.9 µM (inactive)	26.3 µM (inactive)	5.71 µM (inactive)
CN(C)CCNC(=O)c1ccc(Cl)c2c(Nc3ccc(S(N)(=O)=O)cc3)c3ccccc3nc12	3.46 µM (inactive)		1.67 µM (inactive)	2.38 µM (inactive)		2.64 µM (inactive)	1.41 µM (inactive)	1.39 µM (inactive)	2.72 µM (inactive)	2.22 µM (inactive)	2.84	0.594 µM (active)	0.173 µM (active)	4.5 µM (inactive)	2.97 µM (inactive)	2.42 µM (inactive)	1.45 µM (inactive)	1.12 µM (active)	3.03 µM (inactive)	
COc1ccc(/C(C)=N/NC(=O)c2ccncc2)c(OC)c1	> 10 µM (inactive)	> 10 µM (inactive)		> 10 µM (inactive)	> 10 µM (inactive)	> 10 µM (inactive)	> 10 µM (inactive)	> 10 µM (inactive)	> 10 µM (inactive)	> 10 µM (inactive)	> 10	> 10 µM (inactive)	> 10 µM (inactive)	> 10 µM (inactive)	> 10 µM (inactive)		> 10 µM (inactive)	> 10 µM (inactive)	> 10 µM (inactive)	
CC(C)(C)OC(=O)NC(CCCCNC(=O)OCc1ccccc1)C(=O)NC(CCCCNC(=O)OCc1ccccc1)C(=O)ON1C(=O)CCC1=O (stereo unspecified)	> 100 µM (inactive)			> 100 µM (inactive)	> 100 µM (inactive)	> 100 µM (inactive)		> 100 µM (inactive)			> 100		> 100 µM (inactive)	> 100 µM (inactive)	> 100 µM (inactive)		> 100 µM (inactive)	> 100 µM (inactive)	> 100 µM (inactive)	> 100 µM (inactive)
Cc1c(O)c(=O)ccn1CCc1c[nH]c2ccccc12	18.2 µM (inactive)	3.1 µM (inactive)	3.08 µM (inactive)		0.718 µM (active)	9.35 µM (inactive)	2.44 µM (inactive)	22 µM (inactive)		12.5 µM (inactive)	0.397	0.0335 µM (active)	7.23 µM (inactive)	3.69 µM (inactive)	20.5 µM (inactive)					28.4 µM (inactive)
C[C@]12CC(C#N)C(=O)C(O)=C1CC[C@@H]1C2CC[C@@]2(C)C1CC[C@@H]2O (stereo partly specified)	31.1 µM (inactive)		47.2 µM (inactive)	10.1 µM (inactive)		47.5 µM (inactive)	41.7 µM (inactive)	> 100 µM (inactive)	3.86 µM (inactive)	33.2 µM (inactive)	48.6	27.4 µM (inactive)	> 100 µM (inactive)	7 µM (inactive)	35.6 µM (inactive)	65.5 µM (inactive)	27.6 µM (inactive)	60 µM (inactive)	> 100 µM (inactive)	
